# Measurements: patent US5411965A, “Use of delta opioid receptor antagonists to treat cocaine abuse” (Arizona Board of Regents, priority 1993, dated 1995)
# Entries after “also recorded” stand apart in the source; their conditions may differ. Like-named read-outs stand apart in the source and are kept apart here.
# How the values were obtained:
# [1] = format: in vivo, rats; details: for pressing for brain stimulation, NTI plus MDMA: in words; for pressing for brain stimulation, cocaine alone: cocaine (5.0 mg/kg in Example 5)
# Description: When rats are fixed with chronically indwelling bipolar electrodes for electrical stimulation of the medial forebrain bundle, they will press levers for brief durations of stimulation. The higher the intensity of stimulation, the greater the pressing. […] These relationships plus extant theory provide the rationale for using pressing for brain stimulation as a means of assessing the reinforcing effects of drugs and assessing which drugs might affect another drug's reinforcing effects.
# The particulars of the procedures used herein are briefly summarized. Further information is in Reid (cited above) and Reid et al. (Life Sciences, 52, PL67-71 (1993)). Rats were fixed with chronically indwelling bipolar electrodes. Using standard stereotaxic methods, which includes full anesthesia, the tips of the electrode were aimed to stimulate the medial forebrain bundle as it traverses the lateral hypothalamus. With the skull held in a stereotaxic instrument so that a plane between bregma and lamba was perpendicular to the shaft of the electrode, the following stereotaxic coordinates were used: 3.5 mm posterior to brema, 1.6 mm lateral to the midline, and 8.6 mm below the surface of the skull.
# The apparatus of these tests was a Skinner box (24×30 ×38 cm) equipped with a lever (2.5×2 cm). Each box was fixed with electrical leads and a slip-ring apparatus that allowed the rat to be connected to the electrical stimulator for intracranial stimulation, but allowed the rat to move freely in the box.
# Upon full recovery from surgery, rats were trained to press a lever in the Skinner box for electrial stimulation of the brain. The electrical stimulation was 60 Hz sine waves of 0.3 sec. The maximum intensity used was of 50 microAmps. Each lever press delivered one 0.3-sec of brain stimulation.
# Just after rats learned to press the lever, the intensity of the brain stimulation was varied. Three intensities were chosen. The lowest intensity was one that was barely sufficient to sustain lever pressing. The highest intensity sustained high rates of pressing, but not the highest rates that a rat can achieve. The medium intensity was about midway between the lowest and the highest. Once a set of intensities were established for each rat, those intensities remained fixed throughout the balance of testing. […] Each rat was under a daily regimen. They were allowed to press for each of three intensities of brain stimulation for 10 minutes. […] They were allowed to press the lever under this daily regimen under level-pressing rates became stable. Then, drugs (or placebos) were administered.
# The methods of Example 5 were nearly the same as those of Example 4. Rats were fixed, using standard procedures, with chronically indwelling electrodes for stimulation of the medial forebrain bundle. Subsequent to recovery from surgery, they were trained to press for brain stimulation. After each learned to press, they were put on a daily regimen. That daily regimen involved pressing for 5 min at a high intensity of brain stimulation, followed by 5-minute sessions with medium, low, low, medium and then high intensity. Intensities were set for each rat so that pressing rate for the low intensity was rather slow (the low intensity being near lower threshold for maintaining pressing), pressing for the high intensity was at a high rate, and pressing for the medium intensity was between the rate for low and high intensity. Pressing at each intensity was averaged for an index of rat's responsiveness at that intensity.
# delta opioid receptor = assay: In vivo antagonism of DSLET antinociception (writhing); design: species or system mice; details: 20 mg/kg s.c.; in words
# Method: When mice are injected with an irritant, they respond by a characteristic writhing that can be inhibited by analgesics. Consequently, the writhing response can be used to index the effects of particular opioids.
# [2] = Conditioned place preference (CPP) test; format: in vivo, male Lewis rats; details: for conditioned place preference, cocaine alone: cocaine 15 mg/kg s.c. plus placebo
# Description: Testing associated with conditioning place preference (CPP) procedures involves some rather straightforward assumptions and observations.
# To test NTI's ability to block cocaine's ability to establish a CPP, male, Lewis rats were subjected to standard procedures associated with testing for place preferences. The rats were first habituated to being handled.
# Then, the rats were put into an alley having two distinctive sides with the barrier separating the two sides not in place, i.e., a baseline preference for the two sides was measured. After baseline was determined, the conditioning procedures began.
# The conditioning procedures were the same for all rats, except that there were four different regimens of drug administration, one regimen for each of four different groups of rats (12 rats a group). The conditioning procedure involved one set of kind of injections before a rat was placed in one side of the alley and another set of kind of injections before being placed in the other side.
# The group of rats that received the procedures usually used to show a cocaine-produced CPP, received cocaine-injections (plus a placebo injection) before being put into the putative side of conditioning. The dose of cocaine was 15 mg/kg given subcutaneously, a relatively large dose of cocaine. On the next day, this group received placebo injections before being put into the alternative side. These procedures were repeated throughout conditioning.
# There was also a group that received placebos (vehicles for both cocaine and NTI) before being placed in either side of the chamber. This is a typical control group and can be used to determine if merely the procedures themselves of handling the rats leads rats to change their preference for a side of the alley.
# There was yet another control group. This group received NTI before being placed in the side of putative conditioning and placebos at other times. […] So, the basic conditions for testing a NTI's effects on cocaine's ability to establish a CPP indicative of cocaine's positivity were set.
# FIG. 2 depicts the mean percent change from baseline for each of the experimental groups. The group represented by the open bar (far left bar) received only injections of placebos before being put into either side of the apparatus, i.e., this is a placebo control group. […] The striped bar depicts the mean scores of the group that received NTI before being placed into the side of conditioning and saline before being placed into the other side. […] The solid black bar depicts the scores of the group getting cocaine before being put into the side of conditioning (saline or placebo before being put into the other side). […] The cross-hatched bar depicts the mean score of the group treated with cocaine but also receiving NTI.
# mu opioid receptor = details: agonist morphine in GPI; antagonist 100 or 200 nM, 15 min; read-out: Ke; cited from earlier work
# dopamine transporter = details: in words; cited from earlier work
# [3] = drug alone; literature; cited from earlier work
# [4] = format: in vivo, rats; details: cocaine 0.4 mg/kg a lever press; one-hour session
# Description: When rats are fixed with chronically indwelling intravenous catheters, drugs can be administered as the rats are walking around. These same rats can be put into a box equipped with a lever, the depression of which actuates a pump that can deliver drug through the catheter, i.e., the rats can be put into a Skinner box with drug administration a continguency of lever-pressing. […] See J. R. Weeks et al., "Screening for Drug Reinforcement Using Intravenous Self-Administration in the Rat," Bozarth, cited above, at pages 35-44.
# Rats were fixed with chronically indwelling catheters for the delivery of doses of cocaine directly into their veins. Subsequently, the rats were trained to press a lever for small bolus injections of cocaine (0.4 mg/kg of cocaine a lever press with an injection volume of 10 microliters of drug plus saline solution, the drug carrier). Rats were given one-hour opportunities daily to press for cocaine.
SMILES,"mean presses at High intensity, MDMA plus Naltrindole ([1]; High intensity, combination with MDMA, six rats) [presses per ten minutes]","mean presses at Low intensity, MDMA plus Naltrindole ([1]; Low intensity, combination with MDMA, six rats) [presses per ten minutes]","mean presses at Medium intensity, MDMA plus Naltrindole ([1]; Medium intensity, combination with MDMA, six rats) [presses per ten minutes]","pressing for brain stimulation, NTI alone ([1]; NTI by itself, listed as NTI)","pressing for brain stimulation, NTI plus MDMA ([1]; listed as NTI)","pressing for brain stimulation, NTI plus MDMA ([1]; listed as naltrindole)","pressing for brain stimulation, NTI plus amphetamine ([1]; rat, in vivo)","pressing for brain stimulation, NTI plus cocaine ([1]; rat, in vivo)","pressing for brain stimulation, NTI plus morphine ([1]; rat, in vivo)",blocking of writhing inhibition due to DSLET (delta opioid receptor),"conditioned place preference, NTI alone ([2]; rat, in vivo)","conditioned place preference, NTI plus cocaine ([2]; rat, in vivo)",Kb (mu opioid receptor) [nM],dopamine transporter binding / dopamine reuptake inhibition (dopamine transporter),conditioned place preference [3],"pressing for brain stimulation, cocaine alone [1]","pressing for brain stimulation, cocaine alone ([1]; listed as cocaine)","conditioned place preference, cocaine alone [2]","conditioned place preference, cocaine alone ([2]; listed as cocaine)","cocaine self-administration, average presses without NTI [4]"
"Oc1ccc2c3c1O[C@H]1c4[nH]c5ccccc5c4C[C@@]4(O)[C@@H](C2)N(CC2CC2)CC[C@]314 [Compound 1, 17-(cyclopropylmethyl)-6,7-dehydro-3,14β-dihydroxy-4,5α-epoxy-6,7-2',3'-indolmorphinan]",825,98,342,"no demonstratable effect; also recorded: did not, by itself, reduce pressing for brain stimulation",reduced the increased pressing associated with the administration of MDMA,pressing at the low intensity is reduced considerably and there is no reliable difference in pressing under the combination of drugs compared to placebo,pressed somewhat less under the influence of NTI (10 mg/kg) plus amphetamine than they did under the influence of placebos; also recorded: NTI can modulate amphetamine's as well as cocaine's reinforcing effects; also recorded: reduced pressing similar to rate under placebo,NTI blocked cocaine's effects; also recorded: blocked the effects of cocaine; also recorded: NTI blocked cocaine's ability to be reinforcing; also recorded: reduced rate of pressing under the influence of cocaine to that similar to rate of pressing under placebo alone; also recorded: extraordinarily effective in blocking cocaine's salient effects,hardly affected the effects of morphine; also recorded: negligible; also recorded: did not markedly or significantly affect rate of pressing,effectively blocked the writhing inhibition due to DSLET,did not significantly change from baseline to testing; also recorded: not statistically different at testing from baseline; also recorded: did not by itself establish a place preference; also recorded: did not produce place preferences or place aversions,significantly different from the cocaine group's scores but not different from the other groups' scores; also recorded: blocked cocaine's ability to produce a positive CPP; also recorded: antagonized by naltrindole,29.4,–,–,–,–,–,–,–
"COC(=O)[C@H]1[C@@H](OC(=O)c2ccccc2)C[C@@H]2CC[C@H]1N2C [Cocaine, methyl 3-(benzoyloxy)-8-methyl-8-azabicyclo[3.2.1]octane-2-carboxylate]",–,–,–,–,–,–,–,–,–,–,–,–,–,binds to the dopamine transporter and inhibits dopamine reuptake,establishes a CPP,leads to a marked increase in pressing compared to pressing under the influence of placebo,large increase in pressing; also recorded: increased pressing for stimulation,established a positive CPP; also recorded: produced a significant (asterisk) positive place preference,statistically significantly different than its baseline score and is significantly larger than the placebo-control group's scores,about 11 presses a session
